Measurements as given in BindingDB's records for patent US20250313563 (The Broad Institute, 2025).
Values joined by “and” are separate entries in the source; they are usually repeats but may differ in a detail not shown here. Equal entries are not always repeated.

Legend:
[1] = molecular target: Glycogen synthase kinase-3 alpha (Homo sapiens, UniProt P49840); test: TR-FRET Assay
Summary of the method: (§1)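 Signal is measured as TR-FRET between a terbium anti-phospho-Ser641 antibody and streptavidin-d2, added after an EDTA quench. Compounds are preincubated 30 min in assay buffer.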

[2] = molecular target: Glycogen synthase kinase-3 beta (Homo sapiens, UniProt P49841); test: TR-FRET Assay
Glycogen synthase kinase-3 beta, sequence (P49841 whole entry): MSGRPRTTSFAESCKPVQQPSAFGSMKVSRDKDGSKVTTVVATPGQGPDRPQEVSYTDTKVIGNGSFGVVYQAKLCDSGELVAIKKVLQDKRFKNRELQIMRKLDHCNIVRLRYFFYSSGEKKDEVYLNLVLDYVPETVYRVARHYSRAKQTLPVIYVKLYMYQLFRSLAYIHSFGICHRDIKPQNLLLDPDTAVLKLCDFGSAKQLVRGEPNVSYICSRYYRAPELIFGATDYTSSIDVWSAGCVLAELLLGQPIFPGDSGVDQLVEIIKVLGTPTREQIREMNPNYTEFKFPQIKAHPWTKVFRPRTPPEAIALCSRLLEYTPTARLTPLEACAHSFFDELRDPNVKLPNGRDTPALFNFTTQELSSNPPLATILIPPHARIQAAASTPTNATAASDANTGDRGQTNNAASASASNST
Summary of the method: as §1

Glycogen synthase kinase-3 alpha, sequence (P49840 whole entry): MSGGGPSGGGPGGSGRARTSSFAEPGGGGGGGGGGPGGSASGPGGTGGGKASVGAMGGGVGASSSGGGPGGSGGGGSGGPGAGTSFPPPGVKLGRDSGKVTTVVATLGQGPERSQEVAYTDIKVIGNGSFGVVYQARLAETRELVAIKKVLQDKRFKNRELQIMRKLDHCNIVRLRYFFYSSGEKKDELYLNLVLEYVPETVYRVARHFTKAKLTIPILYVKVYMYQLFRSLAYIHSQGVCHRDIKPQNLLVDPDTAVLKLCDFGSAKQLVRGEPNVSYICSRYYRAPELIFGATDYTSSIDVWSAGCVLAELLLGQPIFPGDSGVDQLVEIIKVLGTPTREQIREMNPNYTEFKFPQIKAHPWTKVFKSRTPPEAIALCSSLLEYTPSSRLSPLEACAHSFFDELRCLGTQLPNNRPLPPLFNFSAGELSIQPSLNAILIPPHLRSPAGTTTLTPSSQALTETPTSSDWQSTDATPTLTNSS

Row | SMILES | IC50 [1] | IC50 [2]
1 | CC[C@]1(c2cccc(C3=CNN4CC=CN=C34)c2)C2=CN=NC2NC2=C1C(=O)NC(C)(C)C2 (stereo partly specified) [US20250313563, Compound 949389] | 1000 to 5000 nM | > 5000 nM
2 | CC[C@@]1(c2cccc(-c3ccnn3C3CC3(F)F)c2)C2=CN=NC2NC2=C1C(=O)NC(C)(C)C2 (stereo partly specified) [US20250313563, Compound 950824] | < 100 nM and 100 to 1000 nM | < 100 nM and 100 to 1000 nM
3 | CCC1(c2cccc(C(F)(F)F)c2)C2=CN=NC2NC2=C1C(=O)N(c1ccccc1)CC2 (stereo unspecified) [US20250313563, Compound 917211] | < 100 nM | 100 to 1000 nM
4 | CCn1cc(N2CCC3=C(C2=O)[C@](CC)(c2cccc(C(F)(F)F)c2)C2=CN=NC2N3)cn1 (stereo partly specified) [US20250313563, Compound 949867] | < 100 nM | 100 to 1000 nM
5 | CCC1(c2cccc(C(F)(F)F)c2)C2=C(N=NC2)NC2=C1C(=O)NC2C (stereo unspecified) [US20250313563, Compound 917295] | 100 to 1000 nM | 1000 to 5000 nM
6 | CCC1(c2cccc(C(F)(F)F)c2)C2=CN=NC2NC2=C1C(=O)N(c1cc(C)n(C)n1)CC2 (stereo unspecified) [US20250313563, Compound 950608] | 100 to 1000 nM | 1000 to 5000 nM
7 | CC[C@]1(c2cccc(Br)c2)C2=CN=NC2NC2=C1C(=O)C[C@H](C(F)(F)F)C2 (stereo partly specified) [US20250313563, Compound 826655] | > 5000 nM | > 5000 nM
8 | CC[C@]1(c2cccc(C(F)(F)F)c2)C2=C(N=NC2)NC2=C1C(=O)N(c1ccccc1)C2 [US20250313563, Compound 945376] | > 5000 nM | > 5000 nM
9 | CCC1(c2cccc(C(F)(F)F)c2)C2=CN=NC2NC2=C1C(=O)NC(C(C)(C)C)C2 (stereo unspecified) [US20250313563, Compound 945635] | < 100 nM | 100 to 1000 nM
10 | CC[C@@]1(c2cccc(C(F)(F)F)c2)C2=CN=NC2NC2=C1C(=O)N(c1cnn(C)c1C)CC2 (stereo partly specified) [US20250313563, Compound 952257] | < 100 nM | 100 to 1000 nM
11 | CCC1(c2cccc(-c3c(C)nn(C)c3C)c2)C2=C(CC(C)(C)NC2=O)NC2N=NC(C)=C21 (stereo unspecified) [US20250313563, Compound 945598] | < 100 nM | < 100 nM
12 | CC[C@]1(c2cccc(-c3cnn(Cc4ccc(C(F)(F)F)cc4)c3)c2)C2=CN=NC2NC2=C1C(=O)NC(C)(C)C2 (stereo partly specified) [US20250313563, Compound 949511] | > 5000 nM | > 5000 nM
13 | CC[C@@]1(c2cccc(-c3cn(C)nc3C)c2)C2=C(N=NC2)NC2=C1C(=O)C(C)(C)C2 [US20250313563, Compound 951702] | 100 to 1000 nM | 100 to 1000 nM
14 | CC[C@]1(c2cccc(N(C)c3ncccn3)c2)C2=CN=NC2NC2=C1C(=O)NC(C)(C)C2 (stereo partly specified) [US20250313563, Compound 943964] | < 100 nM and 100 to 1000 nM | < 100 nM and 1000 to 5000 nM
15 | CC[C@@]1(c2cccc(-c3ccncc3F)c2)C2=C(CC(C)(C)NC2=O)NC2N=NC(C(F)(F)F)=C21 (stereo partly specified) [US20250313563, Compound 948777] | < 100 nM | < 100 nM
16 | CC[C@@]1(c2cccc(-c3c([N+](=O)O)c(C)nn3C)c2)C2=CN=NC2NC2=C1C(=O)NC(C)(C)C2 (stereo partly specified) [US20250313563, Compound 952209] | < 100 nM | < 100 nM
17 | CC1(C)CC(=O)C2=C(C1)NC1=C(CN=N1)[C@]21CCc2c(F)cccc21 [US20250313563, Compound 806633] | < 100 nM | 100 to 1000 nM
18 | CCC1(c2ccccc2)C2=C(N=NC2)NC2=C1C(=O)CC1(CCCC1)C2 (stereo unspecified) [US20250313563, Compound 785737] | < 100 nM | 100 to 1000 nM
19 | CCC1(c2cccc(-c3cc(C)ncc3C)c2)C2=C(CC(C)(C)CC2=O)NC2N=NC(C(F)(F)F)=C21 (stereo unspecified) [US20250313563, Compound 945530] | < 100 nM | < 100 nM
20 | CC[C@@]1(c2cccc(-c3ccnn3C)c2)C2=CN=NC2NC2=C1C(=O)N[C@@]1(CCCOC1)C2 (stereo partly specified) [US20250313563, Compound 949115] | < 100 nM and 100 to 1000 nM | < 100 nM and 1000 to 5000 nM
21 | CC[C@]1(c2cccc(C(F)(F)F)c2)C2=CN=NC2NC2=C1C(=O)N(C)CC2 (stereo partly specified) [US20250313563, Compound 917282] | < 100 nM | 100 to 1000 nM
22 | CC[C@]1(c2cccc(C(F)(F)F)c2)C2=CN=NC2NC2=C1C(=O)N(CCOC)CC2 (stereo partly specified) [US20250313563, Compound 949599] | 100 to 1000 nM | 100 to 1000 nM
23 | CC[C@]1(c2cccc(-c3cc(C)nnc3C)c2)C2=C(CC(C)(C)NC2=O)NC2N=NC(C(F)(F)F)=C21 (stereo partly specified) [US20250313563, Compound 949917] | < 100 nM | < 100 nM

Results, then the compound that gave them:

Row | IC50 [1] | IC50 [2] | SMILES
24 | 100 to 1000 nM | 100 to 1000 nM | CC1(C)CC(=O)C2=C(C1)NC1=C(CN=N1)[C@]21COC2(CCC2)C1 [US20250313563, Compound 917128]
25 | < 100 nM | < 100 nM | CC[C@@]1(c2cccc(N3CCOc4ccccc43)c2)C2=CN=NC2NC2=C1C(=O)CC(C)(C)C2 (stereo partly specified) [US20250313563, Compound 932655]
26 | < 100 nM | < 100 nM | CC1(C)CC(=O)C2=C(C1)NC1N=NC=C1C21CCCN(S(=O)(=O)C2CC2)CC1 (stereo unspecified) [US20250313563, Compound 917137]
27 | < 100 nM | < 100 nM | CCC1(c2cccc(S(=O)(=O)C3CC3)c2)C2=CN=NC2NC2=C1C(=O)N(C)C(C)(C)C2 (stereo unspecified) [US20250313563, Compound 948303]
28 | < 100 nM | 100 to 1000 nM | CC(=O)N1CC[C@]2(C1)C[C@@]1(CO2)C2=C(N=NC2)NC2=C1C(=O)CC(C)(C)C2 [US20250313563, Compound 948319]
29 | < 100 nM and 100 to 1000 nM | < 100 nM and 1000 to 5000 nM | CC[C@@]1(c2cccc(-c3ccnnc3)c2)C2=CN=NC2NC2=C1C(=O)CC(C)(C)C2 (stereo partly specified) [US20250313563, Compound 929454]
30 | < 100 nM | < 100 nM | CC1(C)CC(=O)C2=C(C1)NC1=C(CN=N1)C21COC2(CN(C(=O)c3ccccc3)C2)C1 (stereo unspecified) [US20250313563, Compound 917231]
31 | < 100 nM and 100 to 1000 nM | < 100 nM and 1000 to 5000 nM | CC1(C)CC(=O)C2=C(C1)NC1=C(CN=N1)C21CCN(S(=O)(=O)c2cccnc2)CC1 [US20250313563, Compound 947613]
32 | < 100 nM | 100 to 1000 nM | CCC1(c2cccc(-c3cnnc(C)c3)c2)C2=CN=NC2NC2=C1C(=O)CC(C)(C)C2 (stereo unspecified) [US20250313563, Compound 926844]
33 | < 100 nM | < 100 nM and 100 to 1000 nM | CC1(C)CC(=O)C2=C(C1)NC1=C(CN=N1)C21CCN(S(=O)(=O)CC2CC2)CC1 [US20250313563, Compound 909207]
34 | < 100 nM and 100 to 1000 nM | < 100 nM and 1000 to 5000 nM | CC1(C)CC(=O)C2=C(C1)NC1=C(CN=N1)C21CCN(S(=O)(=O)c2ccccc2)CC1 [US20250313563, Compound 874530]
35 | < 100 nM | 100 to 1000 nM | CCC(C)C(=O)N1CC2(C1)CC1(CO2)C2=C(N=NC2)NC2=C1C(=O)CC(C)(C)C2 (stereo unspecified) [US20250313563, Compound 947270]
36 | < 100 nM | 100 to 1000 nM | CCC1(c2cccc(-n3ccnc3)c2)C2=CN=NC2NC2=C1C(=O)CC(C)(C)C2 (stereo unspecified) [US20250313563, Compound 854926]
37 | 100 to 1000 nM | 1000 to 5000 nM | CC[C@]1(c2cccc(-c3cnn4c3CCCC4)c2)C2=CN=NC2NC2=C1C(=O)CC(C)(C)C2 (stereo partly specified) [US20250313563, Compound 945543]
38 | < 100 nM | < 100 nM | C[C@@H]1CCC[C@]2(C1)C1=C(N=NC1)NC1=C2C(=O)CC(C)(C)C1 [US20250313563, Compound 893320]
39 | < 100 nM | < 100 nM | CCC1(c2cccc(-c3ccnn3CCC(C)C)c2)C2=CN=NC2NC2=C1C(=O)CC(C)(C)C2 (stereo unspecified) [US20250313563, Compound 929401]
40 | < 100 nM | < 100 nM | CCC1(c2cccc(-c3cnc4n3CCCC4)c2)C2=CN=NC2NC2=C1C(=O)CC(C)(C)C2 (stereo unspecified) [US20250313563, Compound 943535]
41 | < 100 nM | 100 to 1000 nM | CCc1cccc(N(C)c2cccc([C@]3(CC)C4=CN=NC4NC4=C3C(=O)CC(C)(C)C4)c2)n1 (stereo partly specified) [US20250313563, Compound 945730]
42 | < 100 nM | < 100 nM | CC1CCC(C(=O)N2CC3(C2)CC2(CO3)C3=C(N=NC3)NC3=C2C(=O)CC(C)(C)C3)C1 (stereo unspecified) [US20250313563, Compound 947268]
43 | 1000 to 5000 nM | 1000 to 5000 nM | CCC1(c2cccc(N3CCCCC3)c2)C2=CN=NC2NC2=C1C(=O)NC(C)(C)C2 (stereo unspecified) [US20250313563, Compound 947566]
44 | < 100 nM | < 100 nM | CC1(C)CC(=O)C2=C(C1)NC1=C(CN=N1)C21CN(S(=O)(=O)CC2CC2)C1 [US20250313563, Compound 929440]
45 | < 100 nM | < 100 nM | CC[C@]1(c2cccc(N(C)c3cccc(F)n3)c2)C2=CN=NC2NC2=C1C(=O)CC(C)(C)C2 (stereo partly specified) [US20250313563, Compound 932636]
46 | 100 to 1000 nM | 100 to 1000 nM | C[C@@H]1CC[C@]2(C1)C1=C(N=NC1)NC1=C2C(=O)CC(C)(C)C1 [US20250313563, Compound 883841]
47 | 100 to 1000 nM | > 5000 nM | CCC1(c2cccc(CN(C)C(=O)C(C)C)c2)C2=CN=NC2NC2=C1C(=O)CC(C)(C)C2 (stereo unspecified) [US20250313563, Compound 865195]
48 | < 100 nM | 100 to 1000 nM | CC[C@@]1(c2cccc(C)c2)C2=CN=NC2NC2=C1C(=O)CC1(CCCC1)C2 (stereo partly specified) [US20250313563, Compound 801312]
49 | 100 to 1000 nM | 100 to 1000 nM | CC[C@]1(c2cccc(N3C[C@@H](C)[C@H](C)C3)c2)C2=CN=NC2NC2=C1C(=O)CC(C)(C)C2 (stereo partly specified) [US20250313563, Compound 924504]
50 | 100 to 1000 nM | 100 to 1000 nM | O=C1C2=C(NC3N=NC=C3C23CCOCC3)[C@H]2CC[C@@H]1C2 (stereo partly specified) [US20250313563, Compound 912080]
51 | 1000 to 5000 nM | 100 to 1000 nM | CC1(C)CC(=O)C2=C(C1)NC1N=NC(C3CC(F)(F)C3)=C1[C@@]21COc2ccccc21 (stereo partly specified) [US20250313563, Compound 127430]
52 | 100 to 1000 nM | 1000 to 5000 nM | CC[C@@]1(c2cccc(-c3cc(OC)ncc3F)c2)C2=CN=NC2NC2=C1C(=O)CC(C)(C)C2 (stereo partly specified) [US20250313563, Compound 944032]
53 | < 100 nM | 100 to 1000 nM | CCC1(c2cccc(-c3ncnn3C)c2)C2=CN=NC2NC2=C1C(=O)CC(C)(C)C2 (stereo unspecified) [US20250313563, Compound 943532]
